We go through 5 compounds from patent publication US8906897B2, “Antimicrobial agents based on hemin derivatives” (Obschestvo S Ogranichennoi Otvetstvennostiyu …, priority 2009, dated 2014).

Data set [1] has as its system Enterococcus faecium No. 569. The data set is described as follows: Specific activity against resistant bacterial strains. The data set is classed as cell-based. To be noted: Ent. faecium 569; 24 h, 36° C.
The subject of data set [2] is Bacillus subtilis BKM B-501. The data set is described as follows: Antibacterial activity (MIC/MBC), serial dilutions in liquid MH medium. The class given is cell-based. To be noted: for MIC: 20 h, MH medium. The gist of the method:
(§1)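 Exponential-phase cultures were diluted to 5×10^4–1×10^5 cells/mL in Mueller-Hinton broth and exposed to twofold serial dilutions of compound at 37 °C with stirring. Growth was read as OD595, corrected for compound absorbance. MIC is the lowest concentration inhibiting growth, and MBC the lowest killing all cells.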

In data set [3] the test system is Staphylococcus aureus 209P. The data set is described as above. The data set is classed as cell-based. To be noted: for MIC: 20 h, MH medium. The gist of the method: as §1
Data set [4] has as its system Enterococcus faecalis BKM B-871. Described as above. The class given is cell-based. To be noted: for MIC: 20 h, MH medium. The gist of the method:
as §1

Data set [5] concerns Micrococcus luteus BKM Ac-2230. The data set is described as above. As to conditions: for MIC: 20 h, MH medium. The class given is cell-based. In a few lines:
as §1

In another data set the test system is human leukocytes. The data set is described as follows: Cytotoxic activity against human leukocytes. To be noted: for toxic effect on human blood leukocytes (in words): concentrations of up to 1 mM, 3 h. The gist of the method: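 Human leukocytes from a healthy donor, isolated by sedimentation and adjusted to (1.0±0.1)×10^6 cells/mL in RPMI-1640 with 8% FBS, exposed 3 h at 37 °C to twofold dilutions (ranges up to 100, 500 or 1000 μM depending on compound). Dead fraction scored by propidium iodide/Hoechst 33342 fluorescence microscopy.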

For the compound `C=CC1=C(C)c2cc3[n-]c(cc4nc(cc5[n-]c(cc1n2)c(C)c5CCC(=O)NCCO)C(CCC(=O)NCCO)=C4C)c(C)c3C=C.[Cl-].[Fe+3]` [Compound XIV, Protohemin IX 6,7-bis-N-(2-Hydroxyethyl)amide], in data set [1], the “MICs for hemin derivatives against Gr+ strains” value (“MICs for hemin derivatives” for short) is above 5e-05 M. Also, the MBC in data set [2] was found to be 6.3 ± 1.6 µM; in data set [3], 3.2 µM; in data set [4], 100 µM; in data set [5], 1.6 µM. Also, the MIC in data set [2] is 1.6 ± 0.4 µM; in data set [3], 1.6 µM; in data set [4], 25 µM; in data set [5], 0.8 µM. The “Death of leukocytes in the presence of 1 mM of compound” value (“Death of leukocytes” for short) with human leukocytes (3 h incubation) turned out to be 17.5 ± 0.7%. Moreover, the “concentration at which a weak toxic effect on leukocytes appears” value with human leukocytes (3 h incubation) was around 1000 µM.
As for `C=CC1=C(C)c2cc3[n-]c(cc4nc(cc5[n-]c(cc1n2)c(C)c5CCC(=O)N[C@@H](CCC(=O)N[C@@H](CCCNC(=N)N)C(=O)OC)C(=O)N[C@@H](CCCNC(=N)N)C(=O)OC)C(CCC(=O)N[C@@H](CCC(=O)N[C@@H](CCCNC(=N)N)C(=O)OC)C(=O)N[C@@H](CCCNC(=N)N)C(=O)OC)=C4C)c(C)c3C=C.[Cl-].[Fe+3]` [Compound XVIII, 6,7-bis[bis(N^α-L-Arginyl Methyl Ester)-L-Glutamyl]-Protohemin IX], the “MICs for hemin derivatives” value in data set [1] is 6.25e-06 M. Moreover, the MBC entry was “Not reached” in data set [2], >50^2 μM in data set [3], >50^3 μM in data set [4] and 12.5 µM in data set [5]. For the same compound, the MIC came out at 12.5 µM in data set [4] and 3.1 µM in data set [5].
Regarding `C=CC1=C(C)c2cc3[n-]c(cc4[n-]c(cc5nc(cc1n2)C(C)=C5C=C)c(C)c4CCC(=O)O)c(CCC(=O)O)c3C.[Cl-].[Fe+3]` [Hem, hemin], in data set [1], the “MICs for hemin derivatives” value is above 1e-05 M. For the same compound, the MBC was 50 ± 13 µM in data set [2], 200 µM in data set [3], above 1000 µM in data set [4] and 25 µM in data set [5]. Moreover, the MIC in data set [2] was 13 ± 4 µM; in data set [3], 100 µM; in data set [4], 1000 µM; in data set [5], 12.5 µM. The “Death of leukocytes” value with human leukocytes (3 h incubation) was found to be 40 ± 2%; in the data set with human leukocytes (3 h incubation, listed as hemin), 40%.
Turning to `C=CC1=C(C)c2cc3[n-]c(cc4nc(cc5[n-]c(cc1n2)c(C)c5CCC(=O)N[C@@H](CO)C(=O)OC)C(CCC(=O)N[C@@H](CO)C(=O)OC)=C4C)c(C)c3C=C.[Cl-].[Fe+3]` [VIII], the “MICs for hemin derivatives” value in data set [1] is reported as >5.0. ×10^−5 M. The MBC was 9 ± 4 µM in data set [2], 200 µM in data set [3], 25 µM in data set [4] and 12.5 µM in data set [5]. For the same compound, the minimal inhibitory concentration (MIC) in data set [2] is 6.3 ± 1.6 µM; in data set [4] it was 12.5 µM. Besides, the “Death of leukocytes” value in the data set with human leukocytes (3 h incubation) was determined as 6.1 ± 0.3%. The “toxic effect on human blood leukocytes (in words)” value in the data set with human leukocytes is reported as “did not cause the death”.
In the case of `C=CC1=C(C)c2cc3[n-]c(cc4nc(cc5[n-]c(cc1n2)c(C)c5CCC(=O)N[C@@H](CCCNC(=N)N)C(=O)OC)C(CCC(=O)N[C@@H](CCCNC(=N)N)C(=O)OC)=C4C)c(C)c3C=C.[Cl-].[Fe+3]` [VII], the “MICs for hemin derivatives” value in data set [1] was above 5e-05 M. Also, the MBC in data set [2] stood at 3.1 ± 0.8 µM; in data set [3] it was 200 µM; in data set [4], 400 µM; in data set [5], 6.3 µM. The compound also gave an MIC in data set [4] of 50 µM. Further, the “Death of leukocytes” value with human leukocytes (3 h incubation) was 8.0 ± 0.8%. Also, the “toxic effect on human blood leukocytes (in words)” value in the data set on human leukocytes is “did not cause the death”.
